Where “and” joins values, the source holds several entries; their conditions need not be identical. Equal values may be shown once. Entries after “also recorded” stand apart in the source; their conditions may differ. One block for each compound: values may come before it. Calls of active or inactive are those of the source.
Legend:
Cytochrome P450 3A4 [1] = molecular target: T1, Cytochrome P450 3A4 (Homo sapiens, UniProt P08684);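 also: CYP3A4 tested as one member of a cytochrome P450 panel screen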
Cytochrome P450 1A2 = molecular target: T2, Cytochrome P450 1A2 (Homo sapiens, UniProt P05177);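 also: PubChem cytochrome P450 panel assay, CYP1A2 panel member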
T2 sequence (P05177 whole entry): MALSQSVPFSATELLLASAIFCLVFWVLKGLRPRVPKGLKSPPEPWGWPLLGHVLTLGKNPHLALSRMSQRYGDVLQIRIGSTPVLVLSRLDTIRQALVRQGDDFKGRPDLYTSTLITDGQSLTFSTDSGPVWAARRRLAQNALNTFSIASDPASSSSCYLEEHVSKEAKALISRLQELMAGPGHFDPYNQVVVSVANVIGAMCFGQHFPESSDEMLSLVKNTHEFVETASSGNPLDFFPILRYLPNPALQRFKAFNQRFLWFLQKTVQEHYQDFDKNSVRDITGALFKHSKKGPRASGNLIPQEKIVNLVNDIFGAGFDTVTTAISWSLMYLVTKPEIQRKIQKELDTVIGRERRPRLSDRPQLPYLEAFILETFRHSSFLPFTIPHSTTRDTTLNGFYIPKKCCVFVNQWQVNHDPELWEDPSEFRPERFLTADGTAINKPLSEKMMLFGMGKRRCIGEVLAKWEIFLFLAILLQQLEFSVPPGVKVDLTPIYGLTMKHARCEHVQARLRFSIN

Cytochrome P450 2C19 = Cytochrome P450 2C19 (Homo sapiens, UniProt P33261); experiment: Cytochrome panel assay with activity outcomes. Panel member name: p450-cyp2c19 Compounds with AC50 equal or less than 10 uM are considered active; assay type: functional
Cytochrome P450 2C9 = Cytochrome P450 2C9 (Homo sapiens, UniProt P11712)
Cytochrome P450 3A4 [2] = molecular target: T1, Cytochrome P450 3A4; remark: listed apart in the source
[3] = molecular target: T3, High affinity choline transporter 1 (Homo sapiens, UniProt Q9GZV3); experiment: human choline transporter blockers, potency – cell-based, 5-point CRC, membrane potential dye, dose response (AID 504840); assay type: functional
T3 sequence (Q9GZV3 whole entry): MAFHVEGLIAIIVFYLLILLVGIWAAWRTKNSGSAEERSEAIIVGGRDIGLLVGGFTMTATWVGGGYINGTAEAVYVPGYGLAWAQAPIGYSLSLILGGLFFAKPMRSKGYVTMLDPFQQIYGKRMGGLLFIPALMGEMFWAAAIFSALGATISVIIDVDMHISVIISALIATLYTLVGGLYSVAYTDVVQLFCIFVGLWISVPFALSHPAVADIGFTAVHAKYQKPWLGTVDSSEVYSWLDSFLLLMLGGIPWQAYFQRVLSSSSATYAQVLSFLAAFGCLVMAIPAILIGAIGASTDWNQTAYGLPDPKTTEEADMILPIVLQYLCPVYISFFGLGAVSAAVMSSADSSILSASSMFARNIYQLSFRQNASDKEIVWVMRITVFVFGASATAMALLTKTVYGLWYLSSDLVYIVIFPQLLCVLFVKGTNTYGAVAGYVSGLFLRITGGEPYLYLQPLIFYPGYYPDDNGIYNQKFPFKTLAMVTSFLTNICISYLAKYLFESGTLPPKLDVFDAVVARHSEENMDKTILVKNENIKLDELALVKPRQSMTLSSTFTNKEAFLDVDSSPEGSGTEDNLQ

Protein skinhead-1 = molecular target: T4, Protein skinhead-1 (Caenorhabditis elegans, UniProt P34707); assay type: functional
T4 sequence (P34707 whole entry): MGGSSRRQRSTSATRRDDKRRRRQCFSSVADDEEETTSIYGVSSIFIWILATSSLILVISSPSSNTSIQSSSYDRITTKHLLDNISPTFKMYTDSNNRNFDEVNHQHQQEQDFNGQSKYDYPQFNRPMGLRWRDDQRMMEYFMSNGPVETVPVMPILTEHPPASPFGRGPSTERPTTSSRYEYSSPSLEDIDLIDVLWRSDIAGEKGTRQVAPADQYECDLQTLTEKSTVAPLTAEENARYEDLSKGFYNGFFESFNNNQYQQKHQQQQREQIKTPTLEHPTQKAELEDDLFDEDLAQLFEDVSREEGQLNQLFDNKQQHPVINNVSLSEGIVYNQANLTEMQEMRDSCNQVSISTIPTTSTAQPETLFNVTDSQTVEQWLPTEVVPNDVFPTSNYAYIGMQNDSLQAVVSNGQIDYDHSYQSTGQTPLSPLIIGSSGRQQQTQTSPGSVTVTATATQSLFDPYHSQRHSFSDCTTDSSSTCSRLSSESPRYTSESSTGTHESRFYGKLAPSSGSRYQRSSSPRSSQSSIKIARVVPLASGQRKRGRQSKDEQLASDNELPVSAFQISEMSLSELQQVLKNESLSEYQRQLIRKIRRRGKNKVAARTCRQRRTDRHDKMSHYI

[4] = molecular target: T5, Short transient receptor potential channel 4 (Mus musculus, UniProt Q9QUQ5); experiment: block of DAMGO-driven TRPC4 calcium entry – cell-based, HEK293 TRPC4/mu-opioid, Fluo-4 calcium, dose response (AID 434942); assay type: functional;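 also: potency of inhibitors blocking the TRPC4 calcium response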
T5 sequence (Q9QUQ5 whole entry): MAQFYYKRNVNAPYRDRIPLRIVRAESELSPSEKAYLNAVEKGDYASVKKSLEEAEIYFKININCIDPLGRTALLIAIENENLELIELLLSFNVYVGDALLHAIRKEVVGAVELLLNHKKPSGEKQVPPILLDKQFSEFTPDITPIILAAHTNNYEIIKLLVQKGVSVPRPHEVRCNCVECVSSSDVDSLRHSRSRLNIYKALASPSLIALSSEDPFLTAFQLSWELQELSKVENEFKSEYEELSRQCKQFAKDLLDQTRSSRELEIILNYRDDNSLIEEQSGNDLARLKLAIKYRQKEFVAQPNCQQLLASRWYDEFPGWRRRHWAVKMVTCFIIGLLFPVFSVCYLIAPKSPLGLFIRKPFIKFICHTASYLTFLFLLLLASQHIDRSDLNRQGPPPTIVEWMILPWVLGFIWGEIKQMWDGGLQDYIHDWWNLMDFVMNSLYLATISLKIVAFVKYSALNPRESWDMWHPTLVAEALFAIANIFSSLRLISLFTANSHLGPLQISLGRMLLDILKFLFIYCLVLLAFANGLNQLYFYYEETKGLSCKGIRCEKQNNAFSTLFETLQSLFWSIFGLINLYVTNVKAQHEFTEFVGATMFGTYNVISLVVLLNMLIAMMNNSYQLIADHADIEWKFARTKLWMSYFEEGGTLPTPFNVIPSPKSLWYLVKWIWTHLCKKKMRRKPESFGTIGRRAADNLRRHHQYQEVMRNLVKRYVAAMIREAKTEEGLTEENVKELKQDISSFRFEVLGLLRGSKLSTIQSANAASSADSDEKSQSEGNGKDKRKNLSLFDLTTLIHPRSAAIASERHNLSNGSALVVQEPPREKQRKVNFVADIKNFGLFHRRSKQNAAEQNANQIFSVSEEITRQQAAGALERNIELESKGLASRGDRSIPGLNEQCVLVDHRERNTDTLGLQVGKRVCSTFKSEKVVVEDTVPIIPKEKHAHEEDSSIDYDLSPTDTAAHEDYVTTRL

[5] = molecular target: Beta-2 adrenergic receptor (Homo sapiens, UniProt P07550); experiment: ADRB2 activation measured by internalization – cell-based, FAP fluorogen, flow cytometry, cherry pick 1, dose response (AID 588763); assay type: functional
[6] = molecular target: T6, Carboxy-terminal domain RNA polymerase II polypeptide A small phosphatase 1 (Homo sapiens, UniProt Q9GZU7); experiment: CTDSP1 inhibitors, concentration-response, biochemical, absorbance readout, ultra-high-throughput screen actives (AID 540297); assay type: functional
T6 sequence (Q9GZU7 whole entry): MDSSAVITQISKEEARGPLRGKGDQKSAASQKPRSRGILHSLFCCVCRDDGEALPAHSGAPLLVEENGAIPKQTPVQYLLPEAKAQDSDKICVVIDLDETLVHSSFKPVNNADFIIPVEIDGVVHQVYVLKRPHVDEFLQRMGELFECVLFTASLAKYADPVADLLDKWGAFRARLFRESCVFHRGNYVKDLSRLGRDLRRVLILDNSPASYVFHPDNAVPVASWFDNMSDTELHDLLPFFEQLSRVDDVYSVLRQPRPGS

[7] = molecular target: DNA dC->dU-editing enzyme APOBEC-3A (Homo sapiens, UniProt P31941); experiment: Dose Response confirmation of small molecule APOBEC3A DNA Deaminase Inhibitors via a fluorescence-based single-stranded DNA deaminase assay. [Related pubchem assays (depositor defined):AID493011, AID493024]; assay type: functional
[8] = molecular target: DNA dC->dU-editing enzyme APOBEC-3G (Homo sapiens, UniProt Q9HC16); assay type: functional;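 also: Dose-response counterscreen measuring inhibition of APOBEC3G DNA deaminase activity, run while confirming APOBEC3A inhibitors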
DNA dC->dU-editing enzyme APOBEC-3G, sequence (Q9HC16 whole entry): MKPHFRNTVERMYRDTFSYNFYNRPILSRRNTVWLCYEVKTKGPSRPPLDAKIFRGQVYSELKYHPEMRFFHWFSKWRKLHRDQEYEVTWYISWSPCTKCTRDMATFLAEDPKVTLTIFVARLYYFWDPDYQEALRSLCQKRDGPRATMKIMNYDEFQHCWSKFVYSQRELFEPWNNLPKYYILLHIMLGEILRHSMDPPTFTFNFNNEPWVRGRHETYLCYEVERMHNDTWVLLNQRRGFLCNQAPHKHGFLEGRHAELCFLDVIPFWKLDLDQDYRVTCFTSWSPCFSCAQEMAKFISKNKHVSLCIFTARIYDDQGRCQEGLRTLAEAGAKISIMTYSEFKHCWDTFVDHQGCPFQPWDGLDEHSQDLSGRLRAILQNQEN

T1 sequence (P08684 whole entry): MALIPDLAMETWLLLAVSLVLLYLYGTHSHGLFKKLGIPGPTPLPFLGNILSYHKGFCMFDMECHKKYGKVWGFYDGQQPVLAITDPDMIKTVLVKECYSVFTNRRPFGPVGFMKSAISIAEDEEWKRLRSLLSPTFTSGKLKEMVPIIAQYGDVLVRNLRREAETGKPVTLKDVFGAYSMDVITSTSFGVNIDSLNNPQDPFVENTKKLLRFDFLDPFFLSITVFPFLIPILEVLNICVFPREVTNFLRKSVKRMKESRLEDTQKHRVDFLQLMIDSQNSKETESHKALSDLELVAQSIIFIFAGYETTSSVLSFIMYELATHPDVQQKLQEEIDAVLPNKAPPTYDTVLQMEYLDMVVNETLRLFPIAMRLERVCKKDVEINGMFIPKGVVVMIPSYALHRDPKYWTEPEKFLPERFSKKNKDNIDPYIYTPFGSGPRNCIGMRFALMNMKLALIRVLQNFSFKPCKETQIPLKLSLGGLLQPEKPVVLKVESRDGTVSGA
Cytochrome P450 2C9, sequence (P11712 whole entry): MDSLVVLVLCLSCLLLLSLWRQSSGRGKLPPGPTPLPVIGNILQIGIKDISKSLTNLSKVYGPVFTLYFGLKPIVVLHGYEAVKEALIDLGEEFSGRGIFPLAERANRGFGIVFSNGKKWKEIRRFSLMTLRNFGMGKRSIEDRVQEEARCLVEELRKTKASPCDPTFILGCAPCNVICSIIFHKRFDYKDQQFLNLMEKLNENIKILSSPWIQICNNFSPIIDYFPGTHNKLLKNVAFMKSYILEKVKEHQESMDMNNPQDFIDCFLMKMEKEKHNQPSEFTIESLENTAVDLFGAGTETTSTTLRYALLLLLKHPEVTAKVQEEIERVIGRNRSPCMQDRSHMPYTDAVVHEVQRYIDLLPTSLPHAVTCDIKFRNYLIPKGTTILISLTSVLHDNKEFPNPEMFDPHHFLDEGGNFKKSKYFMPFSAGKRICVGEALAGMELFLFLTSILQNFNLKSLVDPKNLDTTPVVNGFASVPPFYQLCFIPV
Beta-2 adrenergic receptor, sequence (P07550 whole entry, the tested form may be a part): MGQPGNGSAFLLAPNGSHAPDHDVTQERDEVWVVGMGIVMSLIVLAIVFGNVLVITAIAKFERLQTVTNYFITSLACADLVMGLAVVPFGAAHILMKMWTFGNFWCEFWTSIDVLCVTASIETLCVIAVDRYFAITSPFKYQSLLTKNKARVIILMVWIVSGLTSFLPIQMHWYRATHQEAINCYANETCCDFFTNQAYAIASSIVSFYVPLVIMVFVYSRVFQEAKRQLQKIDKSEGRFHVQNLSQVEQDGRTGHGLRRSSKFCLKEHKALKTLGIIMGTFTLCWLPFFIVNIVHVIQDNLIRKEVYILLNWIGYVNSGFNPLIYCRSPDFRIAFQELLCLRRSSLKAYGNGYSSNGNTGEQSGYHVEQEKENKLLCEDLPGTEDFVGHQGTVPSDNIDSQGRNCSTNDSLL
Cytochrome P450 2C19, sequence (P33261 whole entry): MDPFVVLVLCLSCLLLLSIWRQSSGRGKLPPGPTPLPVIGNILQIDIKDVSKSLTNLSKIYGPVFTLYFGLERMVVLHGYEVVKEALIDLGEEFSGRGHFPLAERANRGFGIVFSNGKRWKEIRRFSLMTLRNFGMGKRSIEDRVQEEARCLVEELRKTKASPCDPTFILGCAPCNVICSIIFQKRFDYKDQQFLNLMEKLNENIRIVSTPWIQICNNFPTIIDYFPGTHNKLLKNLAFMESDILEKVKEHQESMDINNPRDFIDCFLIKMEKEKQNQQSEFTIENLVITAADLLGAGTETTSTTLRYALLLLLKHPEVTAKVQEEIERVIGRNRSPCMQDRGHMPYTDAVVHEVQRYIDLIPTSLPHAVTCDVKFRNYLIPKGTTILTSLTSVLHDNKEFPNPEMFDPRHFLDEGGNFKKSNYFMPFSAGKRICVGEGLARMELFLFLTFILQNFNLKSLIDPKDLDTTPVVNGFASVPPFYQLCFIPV
DNA dC->dU-editing enzyme APOBEC-3A, sequence (P31941 whole entry): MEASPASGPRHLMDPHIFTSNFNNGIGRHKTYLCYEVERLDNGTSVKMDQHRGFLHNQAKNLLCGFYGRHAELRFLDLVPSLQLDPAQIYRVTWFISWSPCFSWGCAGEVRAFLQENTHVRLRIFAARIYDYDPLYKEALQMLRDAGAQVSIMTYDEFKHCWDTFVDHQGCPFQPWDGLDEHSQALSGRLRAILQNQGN

Compound: Fc1ccc(C(c2ccc(F)cc2)N2CCN(C/C=C\c3ccccc3)CC2)cc1
AC50 (Cytochrome P450 3A4 [1]): inactive; also recorded: inconclusive
AC50 (Cytochrome P450 1A2): 15.8 µM (inconclusive) (2×) and 25.1 µM (inconclusive)
AC50 (Cytochrome P450 2C19): inactive
AC50 (Cytochrome P450 2C9): 39.8 µM (inconclusive) and 20 µM (inconclusive) and 15.8 µM (inconclusive)

Compound: CC(C)c1nnc(NC(=O)CCC(=O)N2CCN(c3ccccn3)CC2)s1
AC50 (Cytochrome P450 3A4 [1]): inconclusive
AC50 (Cytochrome P450 2C19; read-out: AC50): 28.2 µM (inconclusive)
AC50 (Cytochrome P450 2C9): 7.08 µM (inconclusive)

Compound: COc1ccc(C2=NN(C(=O)c3cccs3)C(c3ccc(OC)cc3)C2)cc1 (stereo unspecified)
EC50 [5]: 4.84 µM (active)

Compound: C[C@H]1CN([C@@H](C)CO)C(=O)Cc2cc(NS(=O)(=O)c3cn(C)cn3)ccc2O[C@@H]1CN(C)C(=O)Nc1ccc(F)cc1
IC50 [6]: 33.7 µM (active)

Compound: c1ccc(CN2CCC3(CCc4ccccc43)CC2)cc1
AC50 (Cytochrome P450 3A4 [1]): inconclusive
AC50 (Cytochrome P450 1A2): 31.6 µM (inconclusive)
AC50 (Cytochrome P450 2C9): 39.8 µM (inconclusive)

Compound: C[n+]1ccc(C(=O)NCc2ccccc2)cc1 [ENISAMIUM IODIDE]
IC50 [6]: 9.76 µM (active)
IC50 [7]: 2.98 µM (active)
IC50 [8]: 4.98 µM (active)

Second part, the compound after the results:

AC50 (Cytochrome P450 3A4 [2]): 25.1 µM (inconclusive)
IC50 [3]: 10.7 µM (active)
IC50 (Protein skinhead-1): > 100 µM (inactive)
Compound: CC(C)OC(=O)CN1CCN(C2c3ccccc3-c3ccccc32)CC1

EC50 [4]: 5.31 µM (active)
IC50 [3]: 11.5 µM (active)
Compound: Cn1c(-c2ccccc2)cnc1NCc1ccccc1

EC50 [5]: 0.695 µM (active)
Compound: Cc1ncc(CN2CCCC(C(=O)Nc3ccc(-c4cccc(F)c4)cc3)C2)cn1 (stereo unspecified)

Reference: ChEMBL document CHEMBL1201862, “PubChem BioAssay data set” (2004)
